The text below walks through data of PMC10218234, “Design, Synthesis and Antitumor Activity of 1H-indazole-3-amine Derivatives” (International Journal of Molecular Sciences, 2023).

The IC50 is the midpoint of a concentration-inhibition curve. Broadly, the melting point is the temperature, or range, at which the solid turns liquid.

Entries after “also recorded” stand apart in the source; their conditions may differ. Like-named read-outs stand apart in the source and are kept apart here.

The test system of one series is PC-3 cells. As to the kind of experiment: MTT anti-proliferative assay, PC-3. The format is cell-based. Particulars: Homo sapiens, PC-3, 48 h, Table 2, read-out: IC50 ± SD, PC-3. Here is the method: (§1) The antiproliferative activity of the target indazole derivatives was evaluated against a panel of human cancer cell lines (human chronic myeloid leukemia cell lines K562; human lung cancer cell lines A549; human prostate cancer cell lines PC-3; human hepatoma cell lines HepG-2) in vitro, and human embryonic kidney cell lines HEK-293 were used to evaluate the cytotoxicity of a normal cell with high activity derivatives by MTT assay. Moreover, 5-fluorouracil (5-Fu), a broad-spectrum drug antitumor drug with therapeutic effects on various cancers, was used as a positive control.
(§2) Lung (A549), chronic myeloid leukemia (K562), prostate (PC3), and live (Hep-G2) cells were purchased from the Cell Bank of the Chinese Academy of Sciences (Kunming, China). A549, K562, and PC-3 cells were cultured in RPMI-1640 medium and the liver cells Hep-G2 were cultured in MEM medium. All mediums were supplemented with 10% FBS, 100 μg/mL penicillin and 100 μg/mL streptomycin. All cells were cultivated in a 5% CO2 incubator at 37 °C.
(§3) Exponentially growing cells were seeded at a density of 5000 cells per well in 96-well plates containing 100 μL of fresh growth medium. After allowing the cells to attach for 24 h, target compounds were added. After incubation for 48 h, viable cells were stained with MTT (0.5 mg/mL) for 4 h, and the produced formazan crystals were dissolved with 150 µL of dimethyl sulfoxide. Absorbance was measured at 490 nm using an automated microplate reader (Tecan, Infinite M200 Pro, Männedorf, Switzerland). The relative cell viability was calculated according to the following equation: Cell viability%=experimental OD value/control OD value×100%Cell inhibition%=control OD value−experimental OD value/control OD value×100%
(§4) Cell inhibition%=control OD value−experimental OD value/control OD value×100%
On the technique in general: Formazan colour is commonly taken as a measure of viable cells.

The nature of series [1]: MTT cytotoxicity to normal cells, HEK-293. It is filed as cell-based, human. Particulars: human, HEK-293 cells (normal human embryonic kidney cells); normal cell HEK-293; MTT; read-out: IC50 ± SD, HEK-293. The method, then: as §1
as §3, with “To investigate the anticancer activity of indazole derivatives, A549, K562, PC3, and Hep-G2 cells were treated with targets compounds respectively for 48 h in a range of concentrations (from 0.625 to 10 μM) and subjected to a proliferation assay using the MTT assay. Exponentially” for “Exponentially”
as §4

In another series the test system is HEK-293 cells. As to the kind of experiment: MTT cytotoxicity to normal cells, HEK-293. The settings on record: IC50 in HEK-293 divided by IC50 in K562. It is filed as cell-based, human. The method, then:
as §1
as §3, with “To investigate the anticancer activity of indazole derivatives, A549, K562, PC3, and Hep-G2 cells were treated with targets compounds respectively for 48 h in a range of concentrations (from 0.625 to 10 μM) and subjected to a proliferation assay using the MTT assay. Exponentially” for “Exponentially”
as §4

A further series relates to A549 cells. As to the kind of experiment: MTT anti-proliferative assay, A549. Particulars: Homo sapiens, Table 2, 48 h, read-out: IC50 ± SD, A549. It is filed as cell-based. The method, then:
as §1, §2
as §3, with “To investigate the anticancer activity of indazole derivatives, A549, K562, PC3, and Hep-G2 cells were treated with targets compounds respectively for 48 h in a range of concentrations (from 0.625 to 10 μM) and subjected to a proliferation assay using the MTT assay. Exponentially” for “Exponentially”
as §4

The subject of series [2] is K562 cells. Put plainly: MTT anti-proliferative assay, K562. It is filed as cell-based. The settings on record: Homo sapiens. The method, then: as §1, §2
as §3, with “To investigate the anticancer activity of indazole derivatives, A549, K562, PC3, and Hep-G2 cells were treated with targets compounds respectively for 48 h in a range of concentrations (from 0.625 to 10 μM) and subjected to a proliferation assay using the MTT assay. Exponentially” for “Exponentially”
as §4

The test system of series [3] is K562 cells. As to the kind of experiment: Annexin V-FITC/PI cell apoptosis detection assay (flow cytometry). The settings on record: 48 h. It is filed as cell-based, human. Here is the method: (§5) To quantify the effects of 6o on K562 cell apoptosis, K562 cells were treated with different concentrations of the compound 6o and followed by Annexin V-FITC/PI detection assay.
Activation of tumor cell apoptosis plays an important role in treatment cancer. To investigate whether apoptosis could underlie the anticancer activity of 6o, K562 cells were treated with 6o (0, 10, 12 or 14 μM) for 48 h and the percentage of apoptosis was determined by flow cytometry, Annexin V-FITC/PI Apoptosis Detection Kit (BD, Franklin Lakes, NJ, USA) was used. Cells (1 × 10^6/mL per well) were plated in 6-well culture plates and grown for 24 h. After treatment with compound 6o for 48 h, the collected cells were washed two times with ice-cold PBS, counted, and 100 μL of cell suspension with a density of 1 × 10^6 cells/mL was prepared, then incubated with 5 μL Annexin V-FITC and 5 μL Propidium iodide (PI) in the dark for 15 min. After 15 min of incubation and added 400 μL of 1 × binding buffer, and use Cell Quest software (BD, SN: E34297502014) to perform detection on Flow Cytometry (BD, Franklin Lakes, NJ, USA). Data were analyzed using FlowJo V10.

Series [4] relates to Bax and Bcl-2 expression in K562 cells. Put plainly: Western blotting of apoptosis-related proteins Bax and Bcl-2. It is filed as cell-based, human. Particulars: K562, 48 h. Here is the method:
as §5
K562 cells were treated with compound 6o for 48 h, then, lysed in 1×RIPA lysis buffer (Solarbio) with proteinase (Solarbio) and phosphatase inhibitors (Solarbio) for 15 min on ice (proteinase: phosphatase inhibitors: 1 × RIPA lysis buffer = 1:1:100), scraped off from the plate and prepared cell lysates. These lysates were centrifuged at 1.2 × 10^4 rpm at 4 °C for 15 min to collect the supernatants and the protein concentration of each sample was quantified by the BCA protein assay kit (Beyotime, Shanghai, China). Protein was separated by SDS-PAGE and then transferred onto the PVDF membrane. After blocking with 5% skim milk for 2 h, befitting primary antibodies include Bax (Proteintech; Type: Rabbit; Cat No.: 50599-2-lg); Bcl-2 (Proteintech; Type: Mouse; Cat No.: 60178-1-lg); GAPDH (Proteintech; Type: Mouse; Cat No.: 60004-1-lg); β-actin (Proteintech; Type: Rabbit; Cat No.: 81115-1-RR); P53 (Cell signaling; Type: Rabbit; Cat No.: #2527) and MDM2 (Cell signaling; Type: Rabbit; Cat No.: #86934) were sealed in Antibody Dilution Buffer, and cocultivated with the PDF membrane at 4 °C for overnight. […]

The subject of series [5] is K562 cells. As to the kind of experiment: Cell cycle analysis (PI staining, flow cytometry). It is filed as cell-based, human. Particulars: 24 h. The method, then: To further explore the antitumor properties of 6o, the effect of 6o on cell cycle distribution was evaluated. PI staining was used to perform cell cycle analysis.
To analyze the cell cycle, a PI apoptosis detection kit (Solarbio, Wuhan, China) was utilized. After K562 cells were seeded in 6-well plates for 24 h, compound 6o (10, 12 and 14 μM) or positive control was added to the plates for another 24 h. Then, cells were washed three times with PBS, and fixed with 70% ethanol at 4°C for overnight. After fixed, cells were again washed with PBS and incubated at 37 °C with 100 μL RNase A for 30 min. After this, cells were incubated with 400 μL PI for 30 min at 4 °C. After staining, cells were subjected to Flow Cytometry using Cell Quest software (BD, SN: E34297502014) and the PI fluorescence was recorded in the FL2 channel. Data were analyzed using FlowJo V10.
On the technique in general: Flow cytometry measures light scatter and fluorescence of single cells or particles in a stream.

The test system of the next series is Hep-G2 cells. As to the kind of experiment: MTT anti-proliferative assay, Hep-G2. The settings on record: Homo sapiens, HepG2, 48 h, Table 2, 48 h, read-out: IC50 ± SD, Hep-G2. The format is cell-based. The method, then:
as §1, §2
as §3, with “To investigate the anticancer activity of indazole derivatives, A549, K562, PC3, and Hep-G2 cells were treated with targets compounds respectively for 48 h in a range of concentrations (from 0.625 to 10 μM) and subjected to a proliferation assay using the MTT assay. Exponentially” for “Exponentially”
as §4

Series [6] relates to p53 and MDM2 expression in K562 cells. Put plainly: Western blotting of p53 and MDM2. The format is cell-based, human. The settings on record: K562, 48 h. The method, then:
Loss of p53 activity by deletion, mutation, or MDM2 over-expression, is the most common event in the development and progression of cancer. To confirm the ability of 6o to inhibit the p53 and MDM2 interaction in K562, the expression levels of these two proteins were evaluated by Western blotting assay after 48 h of 6o treatment. […] In summary, 6o could change the expression of p53 and MDM2, disrupting the balance of intracellular p53 protein levels, and eventually inducing apoptosis of K562.
K562 cells were treated with compound 6o for 48 h, then, lysed in 1×RIPA lysis buffer (Solarbio) with proteinase (Solarbio) and phosphatase inhibitors (Solarbio) for 15 min on ice (proteinase: phosphatase inhibitors: 1 × RIPA lysis buffer = 1:1:100), scraped off from the plate and prepared cell lysates. These lysates were centrifuged at 1.2 × 10^4 rpm at 4 °C for 15 min to collect the supernatants and the protein concentration of each sample was quantified by the BCA protein assay kit (Beyotime, Shanghai, China). Protein was separated by SDS-PAGE and then transferred onto the PVDF membrane. […]
A general note: In western blotting, separated proteins are transferred to a membrane and probed.

`O=C(CN1CCN(c2ccc(C(F)(F)F)cc2)CC1)Nc1n[nH]c2ccc(-c3ccc(Cl)c(F)c3)cc12` [compound 6o] came in with a melting point of 183 to 185 °C. Moreover, the IC50 in the series with PC-3 cells came out at 8.34 ± 1.55 µM. Besides, the 50% inhibitory concentration (IC50) at 48 h in series [1] was found to be 33.2 ± 3.83 µM. In addition, the “Selectivity index (SI) for K562 cells” value with HEK-293 cells is given as 6.45. In addition, the IC50 with A549 cells came to 6.73 ± 1.03 µM. The IC50 in the series on K562 cells [2] (Table 2, 48 h, read-out: IC50 ± SD, K562) worked out at 5.15 ± 0.55 µM. In addition, in the series with K562 cells [2] (Table 3, read-out: IC50 ± SD, K562), the concentration for half-maximal inhibition (IC50) stood at 5.15 ± 0.55 µM. For the same molecule, the “total apoptosis rate (early and late apoptosis)” value (“total apoptosis rate” for short) with K562 cells [3] (K562, 10 μM) is listed as 9.64%. In the series with K562 cells [3] (K562, 12 μM), the “total apoptosis rate” value came out at 16.59%. Moreover, the “total apoptosis rate” value with K562 cells [3] (K562, 14 μM) was determined as 37.72%. For the same molecule, in series [4], the “expression of Bax (pro-apoptotic protein)” value is recorded as “increase” and the “expression of Bcl-2 (apoptosis-inhibiting protein)” value is reported as “decreased; also recorded: reduce”. In addition, the G0/G1 population in the series on K562 cells [5] (K562, 10 μM) was found to be 31.8%. The molecule also yielded a G0/G1 population in the series with K562 cells [5] (K562, 12 μM) of 36.4%. For the same molecule, the G0/G1 population with K562 cells [5] (K562, 14 μM) was determined as 41.1%. Also, the “proportion of S phase cells” value in the series on K562 cells [5] (K562, 10, 12 and 14 μM, vs negative control) is “decreased significantly”. In the series with Hep-G2 cells, the IC50 stood at 7.37 ± 0.24 µM. In [6], the “expression level of p53 protein” value was “up-regulate” and the “expression of MDM2 protein” value is given as “reduce”.
